Experimental data from US9073855B2, “BCL-2 selective apoptosis-inducing agents for the treatment of cancer and immune diseases” (AbbVie Inc., priority 2008, dated 2015).

Assays:
[1] = tested on: FL5.12/Bcl-2 cells; assay: FL5.12/Bcl-2 cell viability assay under IL-3 withdrawal (CellTitre Glo); format: cell-based, murine; details: Mus musculus, IL-3 withdrawn 48 hrs, then 24 hrs with compound
Method in brief: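 Murine IL-3-dependent FL5.12 cells stably overexpressing Bcl-2 were deprived of IL-3 (WEHI-3B conditioned medium omitted) for 48 hrs, then exposed to various compound concentrations for a further 24 hrs at 37° C, 5% CO2. Viability was read by CellTitre Glo luminescence.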

[2] = molecular target: GST-Bcl-XL (Homo sapiens, UniProt Q07817); assay: TR-FRET binding assay, GST-Bcl-XL with F-Bak peptide probe; details: TR-FRET Binding Affinity, GST-Bcl-XL, F-Bak peptide probe
Method in brief: (§1)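 Ki was derived with Wang's equation for competitive binding of two ligands. The read-out was time-resolved fluorescence after a 3 h room-temperature incubation, using a Tb-labelled antibody donor and the F-Bak peptide acceptor (excitation 340/35 nm). Test compounds entered as DMSO serial dilutions starting at 50 μM, which was the 2× concentration.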

[3] = molecular target: GST-Bcl-2 (Homo sapiens, UniProt P10415); assay: TR-FRET binding assay, GST-Bcl-2 with F-Bak peptide probe; details: for Ki: TR-FRET Binding Affinity, GST-Bcl-2, F-Bak peptide probe; for Binding selectivity ratio (Bcl-XL Ki/Bcl-2 Ki): ratio of TR-FRET Ki values, Bcl-XL over Bcl-2
Method in brief: as §1

Sequence of GST-Bcl-XL (Q07817 whole entry): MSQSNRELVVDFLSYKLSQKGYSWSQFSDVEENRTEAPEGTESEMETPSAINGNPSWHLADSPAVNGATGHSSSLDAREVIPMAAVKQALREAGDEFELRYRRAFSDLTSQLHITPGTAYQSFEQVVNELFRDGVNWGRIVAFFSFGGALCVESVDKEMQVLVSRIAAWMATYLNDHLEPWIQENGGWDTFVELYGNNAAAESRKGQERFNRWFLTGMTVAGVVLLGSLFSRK
Sequence of GST-Bcl-2 (P10415 whole entry): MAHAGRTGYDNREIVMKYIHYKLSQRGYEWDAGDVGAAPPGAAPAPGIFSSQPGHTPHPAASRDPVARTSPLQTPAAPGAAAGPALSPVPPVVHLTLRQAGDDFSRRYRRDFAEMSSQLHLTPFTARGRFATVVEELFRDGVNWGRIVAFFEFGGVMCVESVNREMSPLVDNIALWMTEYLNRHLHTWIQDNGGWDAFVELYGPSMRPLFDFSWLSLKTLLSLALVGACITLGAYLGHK

SMILES | EC50 [1] [nM] | Ki [2] [nM] | Ki [3] [nM] | Binding selectivity ratio (Bcl-XL Ki/Bcl-2 Ki) [3]
CC1(C)CCC(CN2CCN(c3ccc(C(=O)NS(=O)(=O)c4ccc(NCCN5CCCCC5=O)c([N+](=O)[O-])c4)c(Oc4ccc5[nH]ccc5c4)c3)CC2)=C(c2ccc(Cl)cc2)C1 [Example 267, 4-(4-{[2-(4-chlorophenyl)-4,4-dimethylcyclohex-1-en-1-yl]methyl}piperazin-1-yl)-2-(1H-indol-5-yloxy)-N-[(3-nitro-4-{[2-(2-oxopiperidin-1-yl)ethyl]amino}phenyl)sulfonyl]benzamide] | 56.4 | > 660 | 0.454 | 
Cn1cncc1CNc1ccc(S(=O)(=O)NC(=O)c2ccc(N3CCN(CC4=C(c5ccc(Cl)cc5)CC(C)(C)CC4)CC3)cc2Oc2ccc3[nH]ccc3c2)cc1[N+](=O)[O-] [Example 360, 4-(4-{[2-(4-chlorophenyl)-4,4-dimethylcyclohex-1-en-1-yl]methyl}piperazin-1-yl)-2-(1H-indol-5-yloxy)-N-[(4-{[(1-methyl-1H-imidazol-5-yl)methyl]amino}-3-nitrophenyl)sulfonyl]benzamide] | 106 | 144 | 0.228 | 
COCCN1CCC(Nc2ccc(S(=O)(=O)NC(=O)c3ccc(N4CCN(CC5=C(c6ccc(Cl)cc6)CC(C)(C)CC5)CC4)cc3Oc3cccc4[nH]ccc34)cc2[N+](=O)[O-])CC1 [Example 194, 4-(4-{[2-(4-chlorophenyl)-4,4-dimethylcyclohex-1-en-1-yl]methyl}piperazin-1-yl)-2-(1H-indol-4-yloxy)-N-[(4-{[1-(2-methoxyethyl)piperidin-4-yl]amino}-3-nitrophenyl)sulfonyl]benzamide] | 27 | 32 | 0.151 | 
CC(C1=C(c2ccc(Cl)cc2)CC(C)(C)CC1)N1CCN(c2ccc(C(=O)NS(=O)(=O)c3ccc(NC4CCN(C5CCOCC5)CC4)c([N+](=O)[O-])c3)c(Oc3ccc4[nH]ccc4c3)c2)CC1 (centres unmarked) [Example 258, 4-(4-{1-[2-(4-chlorophenyl)-4,4-dimethylcyclohex-1-en-1-yl]ethyl}piperazin-1-yl)-2-(1H-indol-5-yloxy)-N-({3-nitro-4-[(1-tetrahydro-2H-pyran-4-ylpiperidin-4-yl)amino]phenyl}sulfonyl)benzamide] | 9.11 | 4.08 | 0.048 | 
CC1(C)CCC(CN2CCN(c3ccc(C(=O)NS(=O)(=O)c4ccc(NCC5CN(C6CC6)CCO5)c([N+](=O)[O-])c4)c(Oc4cccc5[nH]ncc45)c3)CC2)=C(c2ccc(Cl)cc2)C1 (centres unmarked) [Example 411, 4-(4-{[2-(4-chlorophenyl)-4,4-dimethylcyclohex-1-en-1-yl]methyl}piperazin-1-yl)-N-[(4-{[(4-cyclopropylmorpholin-2-yl)methyl]amino}-3-nitrophenyl)sulfonyl]-2-(1H-indazol-4-yloxy)benzamide] | 11.4 | 7.45 | 0.003 | 2352.3
CC1(C)CCC(CN2CCN(c3ccc(C(=O)NS(=O)(=O)c4ccc(CCC5CCOCC5)c([N+](=O)[O-])c4)c(Oc4ccc5[nH]ccc5c4)c3)CC2)=C(c2ccc(Cl)cc2)C1 [Example 296, 4-(4-{[2-(4-chlorophenyl)-4,4-dimethylcyclohex-1-en-1-yl]methyl}piperazin-1-yl)-2-(1H-indol-5-yloxy)-N-{[3-nitro-4-(2-tetrahydro-2H-pyran-4-ylethyl)phenyl]sulfonyl}benzamide] | 182 | > 660 | 0.651 | 
CC1(C)CCC(CN2CCN(c3ccc(C(=O)NS(=O)(=O)c4ccc(N[C@H]5CC[C@H](N6CCOCC6)CC5)c([N+](=O)[O-])c4)c(Oc4cccc5[nH]ncc45)c3)CC2)=C(c2ccc(Cl)cc2)C1 [Example 402, Trans-4-(4-{[2-(4-chlorophenyl)-4,4-dimethylcyclohex-1-en-1-yl]methyl}piperazin-1-yl)-2-(1H-indazol-4-yloxy)-N-({4-[(4-morpholin-4-ylcyclohexyl)amino]-3-nitrophenyl}sulfonyl)benzamide] | 13.4 | 4.15 | 0.03 | 137.4
CC1(C)CCC(CN2CCN(c3ccc(C(=O)NS(=O)(=O)c4ccc(NCCN5CCCC5=O)c([N+](=O)[O-])c4)c(Oc4ccc5[nH]ccc5c4)c3)CC2)=C(c2ccc(Cl)cc2)C1 [Example 251, 4-(4-{[2-(4-chlorophenyl)-4,4-dimethylcyclohex-1-en-1-yl]methyl}piperazin-1-yl)-2-(1H-indol-5-yloxy)-N-[(3-nitro-4-{[2-(2-oxopyrrolidin-1-yl)ethyl]amino}phenyl)sulfonyl]benzamide] | 78.1 | 472 | 0.328 | 
CC1(C)CCC(CN2CCN(c3ccc(C(=O)NS(=O)(=O)c4ccc(OCCCS(C)(=O)=O)c([N+](=O)[O-])c4)c(Oc4cccc5[nH]ccc45)c3)CC2)=C(c2ccc(Cl)cc2)C1 [Example 316, 4-(4-{[2-(4-chlorophenyl)-4,4-dimethylcyclohex-1-en-1-yl]methyl}piperazin-1-yl)-2-(1H-indol-4-yloxy)-N-({4-[3-(methylsulfonyl)propoxy]-3-nitrophenyl}sulfonyl)benzamide] | 67.5 | 79.5 | 0.149 | 
CC1(C)CCC(CN2CCN(c3ccc(C(=O)NS(=O)(=O)c4ccc(NCC5(F)CCOCC5)c([N+](=O)[O-])c4)c(Oc4cccc5[nH]ncc45)c3)CC2)=C(c2ccc(Cl)cc2)C1 [Example 409, 4-(4-{[2-(4-chlorophenyl)-4,4-dimethylcyclohex-1-en-1-yl]methyl}piperazin-1-yl)-N-[(4-{[(4-fluorotetrahydro-2H-pyran-4-yl)methyl]amino}-3-nitrophenyl)sulfonyl]-2-(1H-indazol-4-yloxy)benzamide] | 1.2 | 17.5 | < 0.01 | 
CC1(C)CCC(CN2CCN(c3ccc(C(=O)NS(=O)(=O)c4cnc(OCC5CCOCC5)c(Br)c4)c(Oc4ccc5[nH]ccc5c4)c3)CC2)=C(c2ccc(Cl)cc2)C1 [Example 329, N-{[5-bromo-6-(tetrahydro-2H-pyran-4-ylmethoxy)pyridin-3-yl]sulfonyl}-4-(4-{[2-(4-chlorophenyl)-4,4-dimethylcyclohex-1-en-1-yl]methyl}piperazin-1-yl)-2-(1H-indol-5-yloxy)benzamide] | 127 | > 660 | 0.285 | 
CN1CCC(O)(CCNc2ccc(S(=O)(=O)NC(=O)c3ccc(N4CCN(CC5=C(c6ccc(Cl)cc6)CC(C)(C)CC5)CC4)cc3Oc3ccc4[nH]ccc4c3)cc2[N+](=O)[O-])CC1 [Example 211, 4-(4-{[2-(4-chlorophenyl)-4,4-dimethylcyclohex-1-en-1-yl]methyl}piperazin-1-yl)-N-[(4-{[2-(4-hydroxy-1-methylpiperidin-4-yl)ethyl]amino}-3-nitrophenyl)sulfonyl]-2-(1H-indol-5-yloxy)benzamide] | 17.1 | 5.61 | 0.009 | 
CC1(C)CCC(CN2CCN(c3ccc(C(=O)NS(=O)(=O)c4ccc(NC[C@H]5CC[C@@H](O)CC5)c([N+](=O)[O-])c4)c(Oc4ccc5[nH]ccc5c4)c3)CC2)=C(c2ccc(Cl)cc2)C1 [Example 312, Cis-4-(4-{[2-(4-chlorophenyl)-4,4-dimethylcyclohex-1-en-1-yl]methyl}piperazin-1-yl)-N-[(4-{[(4-hydroxycyclohexyl)methyl]amino}-3-nitrophenyl)sulfonyl]-2-(1H-indol-5-yloxy)benzamide] | 19.2 | > 660 | 0.34 | 
CC1(C)CCC(CN2CCN(c3ccc(C(=O)NS(=O)(=O)c4ccc(NC5CCN(S(C)(=O)=O)CC5)c([N+](=O)[O-])c4)c(Oc4cccc5[nH]ccc45)c3)CC2)=C(c2ccc(Cl)cc2)C1 [Example 338, 4-(4-{[2-(4-chlorophenyl)-4,4-dimethylcyclohex-1-en-1-yl]methyl}piperazin-1-yl)-2-(1H-indol-4-yloxy)-N-[(4-{[1-(methylsulfonyl)piperidin-4-yl]amino}-3-nitrophenyl)sulfonyl]benzamide] | 71.1 | > 660 | 0.403 | 
CC1(C)CCC(CN2CCN(c3ccc(C(=O)NS(=O)(=O)c4ccc(NC5CCS(=O)(=O)C5)c([N+](=O)[O-])c4)c(Oc4cccc5[nH]ccc45)c3)CC2)=C(c2ccc(Cl)cc2)C1 (centres unmarked) [Example 299, 4-(4-{[2-(4-chlorophenyl)-4,4-dimethylcyclohex-1-en-1-yl]methyl}piperazin-1-yl)-N-({4-[(1,1-dioxidotetrahydrothien-3-yl)amino]-3-nitrophenyl}sulfonyl)-2-(1H-indol-4-yloxy)benzamide] | 77.2 | 246 | 0.425 | 
CC1(C)CCC(CN2CCN(c3ccc(C(=O)NS(=O)(=O)c4ccc(NC(CO)C5CCOCC5)c([N+](=O)[O-])c4)c(Oc4ccc5[nH]ccc5c4)c3)CC2)=C(c2ccc(Cl)cc2)C1 (centres unmarked) [Example 242, 4-(4-{[2-(4-chlorophenyl)-4,4-dimethylcyclohex-1-en-1-yl]methyl}piperazin-1-yl)-N-({4-[(2-hydroxy-1-tetrahydro-2H-pyran-4-ylethyl)amino]-3-nitrophenyl}sulfonyl)-2-(1H-indol-5-yloxy)benzamide] | 165 | > 660 | 1.8 | 
